Laboratory results published in ChEMBL document CHEMBL5143690, “Identification of nitrofuranylchalcone tethered benzoxazole-2-amines as potent inhibitors of drug resistant Mycobacterium tuberculosis demonstrating bactericidal efficacy” (Bioorg Med Chem, 2022).
Converted amounts (≈) assume the structure as drawn.

Experiments:
Type in all cases: functional
[1] = test system: Mycobacterium tuberculosis; test: Antimycobacterial activity against Mycobacterium tuberculosis H37Rv ATCC 27294 assessed as inhibition of bacterial growth measured after 7 days by resazurin microtitre assay; details: H37Rv ATCC 27294, 168 h, time 7 day
Escherichia coli = test: Antibacterial activity against Escherichia coli ATCC 25922 assessed as reduction in bacterial growth incubated for 16 to 18 hrs by microtiter plate assay; details: time 16-18 hrs
Staphylococcus aureus = test: Antibacterial activity against Staphylococcus aureus ATCC 29213 assessed as reduction in bacterial growth incubated for 16 to 18 hrs by microtiter plate assay; details: time 16-18 hrs
Klebsiella pneumoniae = test: Antibacterial activity against Klebsiella pneumoniae BAA 1705 assessed as reduction in bacterial growth incubated for 16 to 18 hrs by microtiter plate assay; details: time 16-18 hrs
Acinetobacter baumannii = test: Antibacterial activity against Acinetobacter baumannii BAA 1605 assessed as reduction in bacterial growth incubated for 16 to 18 hrs by microtiter plate assay; details: time 16-18 hrs
Pseudomonas aeruginosa = test: Antibacterial activity against Pseudomonas aeruginosa ATCC 27853 assessed as reduction in bacterial growth incubated for 16 to 18 hrs by microtiter plate assay; details: time 16-18 hrs
[2] = test system: Mycobacteroides abscessus; test: Antimycobacterial activity against Mycobacterium abscessus ATCC 19977 assessed as inhibition of bacterial growth after 48 hrs by resazurin microtitre assay
[3] = test system: Mycolicibacterium fortuitum; test: Antimycobacterial activity against Mycobacterium fortuitum ATCC 6841 assessed as inhibition of bacterial growth after 48 hrs by resazurin microtitre assay
Mycobacteroides chelonae = test: Antimycobacterial activity against Mycobacterium chelonae ATCC 6841 assessed as inhibition of bacterial growth after 48 hrs by resazurin microtitre assay

SMILES	MIC [1]	MIC (Escherichia coli)	MIC (Staphylococcus aureus)	MIC (Klebsiella pneumoniae)	MIC (Acinetobacter baumannii)	MIC (Pseudomonas aeruginosa)	MIC [2]	MIC [3]	MIC (Mycobacteroides chelonae)
COc1cc(/C=C/C(=O)c2ccc(Nc3nc4cc(C(C)(C)C)ccc4o3)cc2)cc(OC)c1OC	32 µg/mL (≈ 65.8 µM)	> 64 µg/mL	> 64 µg/mL	> 64 µg/mL	> 64 µg/mL	> 64 µg/mL	> 64 µg/mL	> 64 µg/mL	> 64 µg/mL
COc1cc(/C=C/C(=O)c2ccc(Nc3nc4cc(Cl)ccc4o3)cc2)cc(OC)c1OC	8 µg/mL (≈ 17.2 µM)	> 64 µg/mL	> 64 µg/mL	> 64 µg/mL	> 64 µg/mL	> 64 µg/mL	> 64 µg/mL	> 64 µg/mL	> 64 µg/mL
O=C(/C=C/c1ccccc1Cl)c1ccc(Nc2nc3ccccc3o2)cc1	> 64 µg/mL	> 64 µg/mL	> 64 µg/mL	> 64 µg/mL	> 64 µg/mL	> 64 µg/mL	> 64 µg/mL	> 64 µg/mL	> 64 µg/mL
COc1cc(/C=C/C(=O)c2ccc(Nc3nc4ccccc4o3)cc2)cc(OC)c1OC	8 µg/mL (≈ 18.6 µM)	> 64 µg/mL	> 64 µg/mL	> 64 µg/mL	> 64 µg/mL	> 64 µg/mL	> 64 µg/mL	> 64 µg/mL	> 64 µg/mL
O=C(/C=C/c1ccco1)c1ccc(Nc2nc3ccccc3o2)cc1	32 µg/mL (≈ 96.9 µM)	> 64 µg/mL	> 64 µg/mL	> 64 µg/mL	> 64 µg/mL	> 64 µg/mL	> 64 µg/mL	> 64 µg/mL	> 64 µg/mL
CC(=O)N1N=C(c2ccc3oc(-c4ccc(O)cc4)nc3c2)CC1c1cccs1 (stereo not given)	0.8 µg/mL (≈ 1.98 µM)	–	–	–	–	–	–	–	–
O=C(/C=C/c1ccccc1F)c1ccc(Nc2nc3ccccc3o2)cc1	> 64 µg/mL	> 64 µg/mL	> 64 µg/mL	> 64 µg/mL	> 64 µg/mL	> 64 µg/mL	> 64 µg/mL	> 64 µg/mL	> 64 µg/mL
C[C@H]1COc2c(N3CCN(C)CC3)c(F)cc3c(=O)c(C(=O)O)cn1c23.C[C@H]1COc2c(N3CCN(C)CC3)c(F)cc3c(=O)c(C(=O)O)cn1c23.O [LEVOFLOXACIN]	–	0.0078 µg/mL	0.125 µg/mL	64 µg/mL	–	–	–	–	–
COc1ccc(OC)c(C(=O)/C=C/c2ccc3nccnc3c2)c1	3.13 µg/mL (≈ 9.77 µM)	–	–	–	–	–	–	–	–
COc1ccc(OC)c(/C=C/C(=O)c2ccc(Nc3nc4ccccc4o3)cc2)c1	> 64 µg/mL	> 64 µg/mL	> 64 µg/mL	> 64 µg/mL	> 64 µg/mL	> 64 µg/mL	> 64 µg/mL	> 64 µg/mL	> 64 µg/mL
COc1ccc(/C=C/C(=O)c2ccc(Nc3nc4ccccc4o3)cc2)c(OC)c1	> 64 µg/mL	> 64 µg/mL	> 64 µg/mL	> 64 µg/mL	> 64 µg/mL	> 64 µg/mL	> 64 µg/mL	> 64 µg/mL	> 64 µg/mL
O=C(/C=C/c1ccc(Cl)cc1Cl)c1ccc(Nc2nc3ccccc3o2)cc1	> 64 µg/mL	> 64 µg/mL	> 64 µg/mL	> 64 µg/mL	> 64 µg/mL	> 64 µg/mL	> 64 µg/mL	> 64 µg/mL	> 64 µg/mL
CN[C@@H]1[C@H](O[C@H]2[C@H](O[C@H]3[C@H](O)[C@@H](O)[C@H](N=C(N)N)[C@@H](O)[C@@H]3N=C(N)N)O[C@@H](C)[C@]2(O)C=O)O[C@@H](CO)[C@H](O)[C@H]1O [STREPTOMYCIN]	1 µg/mL (≈ 1.72 µM)	–	–	–	–	–	–	–	–
O=C(/C=C/c1ccccc1Br)c1ccc(Nc2nc3ccccc3o2)cc1	> 64 µg/mL	> 64 µg/mL	> 64 µg/mL	> 64 µg/mL	> 64 µg/mL	> 64 µg/mL	> 64 µg/mL	> 64 µg/mL	> 64 µg/mL
O=C(/C=C/c1ccccc1)c1ccc(Nc2nc3ccccc3o2)cc1	16 µg/mL (≈ 47 µM)	> 64 µg/mL	> 64 µg/mL	> 64 µg/mL	> 64 µg/mL	> 64 µg/mL	> 64 µg/mL	> 64 µg/mL	> 64 µg/mL
